According to US9359297B2, “Spirolactam derivatives and uses of same” (H. Lundbeck A/S, priority 2009, dated 2016):

Biological target: T1, human metabotropic glutamate receptor 5 (hmGluR5) (Homo sapiens, UniProt P41594)
T1 construct: expressed in transfected cells
Test: Calcium mobilization (FLIPR) assay for negative allosteric modulation, EC80 glutamate, hmGluR5 in HEK 293
Assay type: cell-based
Conditions: HEK293; hmGluR5, inhibition of EC80 glutamate response; read-out: FLIPR maximum inhibition
Description: The cDNA for rat metabotropic glutamate receptor 5 (rmGluR5) and the cDNA for human metabotropic glutamate receptor 5 (hmGluR5) were generous gifts from S. Nakanishi (Kyoto University, Kyoto, Japan). The rmGluR5 or hmGluR5 was stably expressed in a HEK 293 cell line and grown in Dulbecco's Modified Eagle Medium (DMEM) (Invitrogen, Carlsbad, Calif.) with supplements (10% bovine calf serum, 4 mM glutamine, 100 units/mL penicillin, 100 μg/mL streptomycin and 0.75 mM G1418) at 37° C., 5% CO2. Twenty-four hours prior to assay, cells were seeded into 384-well black wall microtiter plates coated with poly-D-lysine. Just prior to assay, media was aspirated and cells dye-loaded (25 μL/well) with 3 μM Fluo-4/0.01% pluronic acid in assay buffer (Hank's Balanced Saline Solution (HBSS)): 150 mM NaCl, 5 mM KCl, 1 mM CaCl2, 1 mM MgCl2, plus 20 mM N-2-Hydroxyethylpiperazine-N′-2-ethanesulfonic acid (HEPES), pH 7.4, 0.1% bovine serum albumin (BSA) and 2.5 mM probenicid) for 1 hour in 5% CO2 at 37° C. After excess dye was discarded, cells were washed in assay buffer and layered with a final volume equal to 30 μL/well. Basal fluorescence is monitored in a fluorometric imaging plate reader (FLIPR) (Molecular Devices, Sunnyvale, Calif.) with an excitation wavelength of 488 nm and an emission range of 500 to 560 nm. Laser excitation energy was adjusted so that basal fluorescence readings were approximately 10,000 relative fluorescent units. Cells were stimulated with an EC20 or an EC80 concentration of glutamate in the presence of a compound to be tested, both diluted in assay buffer, and relative fluorescent units were measured at defined intervals (exposure=0.6 sec) over a 3 min period at room temperature. Basal readings derived from negative controls were subtracted from all samples. Maximum change in fluorescence was calculated for each well. Concentration-response curves derived from the maximum change in fluorescence were analyzed by nonlinear regression (Hill equation). A negative modulator can be identified from these concentration-response curves if a compound produces a concentration dependent inhibition of the EC80 glutamate response.

T1 sequence (P41594 21-1212): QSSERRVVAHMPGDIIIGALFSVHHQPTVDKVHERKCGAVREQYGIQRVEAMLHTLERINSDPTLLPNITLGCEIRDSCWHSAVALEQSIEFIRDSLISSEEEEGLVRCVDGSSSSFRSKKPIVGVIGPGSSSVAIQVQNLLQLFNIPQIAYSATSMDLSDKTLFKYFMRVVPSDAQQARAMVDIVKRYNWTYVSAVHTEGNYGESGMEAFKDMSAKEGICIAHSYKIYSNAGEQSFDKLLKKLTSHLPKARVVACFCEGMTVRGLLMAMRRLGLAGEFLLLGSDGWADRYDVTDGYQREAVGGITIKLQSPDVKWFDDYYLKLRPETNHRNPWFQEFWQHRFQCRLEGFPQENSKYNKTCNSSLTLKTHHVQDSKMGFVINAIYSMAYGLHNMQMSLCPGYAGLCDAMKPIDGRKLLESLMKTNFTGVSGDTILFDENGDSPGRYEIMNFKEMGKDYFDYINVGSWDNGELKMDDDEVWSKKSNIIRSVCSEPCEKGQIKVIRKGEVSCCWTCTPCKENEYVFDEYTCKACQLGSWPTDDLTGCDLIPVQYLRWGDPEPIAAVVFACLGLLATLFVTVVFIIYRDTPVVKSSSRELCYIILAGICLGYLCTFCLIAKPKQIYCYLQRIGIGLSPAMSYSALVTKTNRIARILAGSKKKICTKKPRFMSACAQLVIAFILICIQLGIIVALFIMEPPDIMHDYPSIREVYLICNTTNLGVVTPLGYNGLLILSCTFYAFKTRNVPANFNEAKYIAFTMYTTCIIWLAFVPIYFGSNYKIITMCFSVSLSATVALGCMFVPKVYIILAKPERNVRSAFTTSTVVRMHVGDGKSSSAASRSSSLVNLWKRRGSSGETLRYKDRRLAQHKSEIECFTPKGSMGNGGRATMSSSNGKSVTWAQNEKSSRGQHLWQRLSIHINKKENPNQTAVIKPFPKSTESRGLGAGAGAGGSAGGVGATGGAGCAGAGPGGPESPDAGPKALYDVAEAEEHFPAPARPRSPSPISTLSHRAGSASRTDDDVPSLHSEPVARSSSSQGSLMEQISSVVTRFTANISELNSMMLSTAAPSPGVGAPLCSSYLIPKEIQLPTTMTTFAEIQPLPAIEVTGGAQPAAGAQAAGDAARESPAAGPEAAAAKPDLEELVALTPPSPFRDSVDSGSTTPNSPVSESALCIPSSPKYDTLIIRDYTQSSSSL

Compound | Emax [%]
Cc1nccc(N2CC[C@]3(C[C@H](NC(=O)c4ccccn4)CC(F)(F)C3)C2=O)n1 (relative stereo) [Example 112, cis-Pyridine-2-carboxylic acid [9,9-difluoro-2-(2-methyl-pyrimidin-4-yl)-1-oxo-2-aza-spiro[4.5]dec-7-yl]-amide] | 47 to 93
Cc1ccc(N2CC[C@]3(CCC[C@H](NC(=O)c4cccc(C)n4)C3)C2=O)cn1 (relative stereo) [Example 63, cis-6-Methyl-pyridine-2-carboxylic acid [2-(6-methyl-pyridin-3-yl)-1-oxo-2-aza-spiro[4.5]dec-7-yl]-amide] | 73 to 95
Cc1cccc(C(=O)N[C@@H]2CC(F)(F)C[C@@]3(CCN(c4cccc(F)c4)C3=O)C2)n1 (relative stereo) [Example 107, cis-6-Methyl-pyridine-2-carboxylic acid [9,9-difluoro-2-(3-fluoro-phenyl)-1-oxo-2-aza-spiro[4.5]dec-7-yl]-amide] | 47 to 93
Cc1nccc(C(=O)N[C@@H]2CC(F)(F)C[C@]3(CCN(c4cc(F)cc(F)c4)C3=O)C2)n1 (relative stereo) [Example 105, trans-2-Methyl-pyrimidine-4-carboxylic acid [2-(3,5-difluoro-phenyl)-9,9-difluoro-1-oxo-2-aza-spiro[4.5]dec-7-yl]-amide] | 47 to 93
Cc1nccc(C(=O)N[C@@H]2C[C@H](O)C[C@@]3(CCN(c4cc(F)cc(F)c4)C3=O)C2)n1 (relative stereo) [Example 116, cis-2-Methyl-pyrimidine-4-carboxylic acid [2-(3,5-difluorphenyl)-9-hydroxy-1-oxo-2-aza-spiro[4.5]dec-7-yl]-amide] | 47 to 93
Cc1nccc(N2CC[C@]3(CCC[C@H](NC(=O)c4ccc(F)c(F)c4)C3)C2=O)n1 (relative stereo) [Example 90, cis-3,4-Difluoro-N-[2-(2-methyl-pyrimidin-4-yl)-1-oxo-2-aza-spiro [4.5]dec-7-yl]-benzamide] | 73 to 95
Cc1cccc(C(=O)N[C@@H]2CCC[C@@]3(CCN(c4ccnc(C(F)(F)F)n4)C3=O)C2)n1 [Example 156, 6-Methyl-pyridine-2-carboxylic acid[(5R,7R)-1-oxo-2-(2-trifluoromethyl-pyrimidin-4-yl)-2-aza-spiro[4.5]dec-7-yl]-amide] | 47 to 93
Cc1cccc(C(=O)N[C@@H]2CC(=O)C[C@@]3(CCN(c4cccc(F)c4)C3=O)C2)n1 (relative stereo) [Example 124, cis-6-Methyl-pyridine-2-carboxylic acid [2-(3-fluoro-phenyl)-1,9-dioxo-2-aza-spiro[4.5]dec-7-yl]-amide] | 47 to 93
Cc1nccc(C(=O)N[C@@H]2C[C@@H](F)C[C@@]3(CCN(c4cc(F)cc(F)c4)C3=O)C2)n1 (relative stereo) [Example 122, trans-2-Methyl-pyrimidine-4-carboxylic acid [2-(3,5-difluoro-phenyl)-9-fluoro-1-oxo-2-aza-spiro[4.5]dec-7-yl]-amide] | 47 to 93
Cc1nccc(C(=O)N[C@H]2CCC[C@]3(CCN(c4cccc(C(F)(F)F)n4)C3=O)C2)n1 (relative stereo) [Example 61, cis-2-Methyl-pyrimidine-4-carboxylic acid [1-oxo-2-(6-trifluoromethyl-pyridin-2-yl)-2-aza-spiro[4.5]dec-7-yl]-amide] | 73 to 95
CCCN1CC[C@]2(CCC[C@H](NC(=O)c3cccc(C)n3)C2)C1=O (relative stereo) [Example 155] | 47 to 93
Cc1nccc(N2CC[C@@]3(C[C@@H](NC(=O)c4cccc(F)c4)CC(F)(F)C3)C2=O)n1 (racemic) [Example 128, cis-N-[9,9-Difluoro-2-(2-methyl-pyrimidin-4-yl)-1-oxo-2-aza-spiro[4.5]dec-7-yl]-3-fluoro-benzamide] | 47 to 93
O=C(N[C@@H]1CC(F)(F)C[C@@]2(CCN(c3cccc(F)c3)C2=O)C1)c1ccccn1 (single isomer, unassigned) [Example 98] | 88 to 93
Cc1cccc(C(=O)N[C@H]2CCC[C@]3(CCN(c4ccnc(C)n4)C3=O)C2)n1 (relative stereo) [Example 62, cis-6-methyl-pyridine-2-carboxylic acid [2-(2-methyl-pyrimidin-4-yl)-1-oxo-2-aza-spiro[4.5]dec-7-yl]-amide] | 73 to 95
Cc1cccc(C(=O)N[C@@H]2CC(F)(F)C[C@@]3(CCN(c4ccnc(C)n4)C3=O)C2)n1 (relative stereo) [Example 108, cis-6-Methyl-pyridine-2-carboxylic acid [9,9-difluoro-2-(2-methyl-pyrimidin-4-yl)-1-oxo-2-aza-spiro[4.5]dec-7-yl]-amide] | 47 to 93
Cc1cccc(C(=O)N[C@@H]2CCC[C@@]3(CCN(c4ccnc(C)n4)C3=O)C2)c1 [Example 152, 3-Methyl-N-[(5R,7R)-2-(2-methyl-pyrimidin-4-yl)-1-oxo-2-aza-spiro[4.5]dec-7-yl]-benzamide] | 47 to 93

The remaining lines, values ahead:

Emax [%] | Compound
47 to 93 | CN(C)c1ccc(N2CC[C@]3(CCC[C@H](NC(=O)c4cccc(F)c4)C3)C2=O)cc1 (relative stereo) [Example 138, cis-N-[2-(4-Dimethylamino-phenyl)-1-oxo-2-aza-spiro[4.5]dec-7-yl]-3-fluoro-benzamide]
47 to 93 | Cc1cc(N2CC[C@]3(CCC[C@H](NC(=O)c4cccc(F)c4)C3)C2=O)nc(C)n1 (relative stereo) [Example 151, cis-N-[2-(2,6-Dimethyl-pyrimidin-4-yl)-1-oxo-2-aza-spiro[4.5]dec-7-yl]-3-fluoro-benzamide]
47 to 93 | O=C(N[C@H]1CCC[C@]2(CCN(c3ccnc(C(F)(F)F)n3)C2=O)C1)c1cccc(F)c1 (relative stereo) [Example 150, cis-3-Fluoro-N-[1-oxo-2-(2-trifluoromethyl-pyrimidin-4-yl)-2-aza-spiro[4.5]dec-7-yl]-benzamide]
47 to 93 | O=C(N[C@H]1CCC[C@]2(CCN(c3cccc(CCCN4CCOCC4)c3)C2=O)C1)c1cccc(F)c1 (relative stereo) [Example 134, cis-3-Fluoro-N-{2-[3-(3-morpholin-4-yl-propyl)-phenyl]-1-oxo-2-aza-spiro[4.5]dec-7-yl}-benzamide]
73 to 95 | O=C(N[C@H]1CCC[C@]2(CCN(c3cccc(F)c3)C2=O)C1)c1cccc(C(F)(F)F)n1 (relative stereo) [Example 94, cis-6-Trifluoromethyl-pyridine-2-carboxylic acid [2-(3-fluoro-phenyl)-1-oxo-2-aza-spiro[4.5]dec-7-yl]-amide]
47 to 93 | O=C(N[C@@H]1C[C@@H](O)C[C@@]2(CCN(c3cccc(F)c3)C2=O)C1)c1cccc(F)c1 (relative stereo) [Example 125, trans-3-Fluoro-N-[2-(3-fluoro-phenyl)-9-hydroxy-1-oxo-2-aza-spiro[4.5]dec-7-yl]-benzamide]
47 to 93 | O=C(N[C@H]1CCC[C@]2(CCN(c3cccc(O)c3)C2=O)C1)c1cccc(F)c1 (relative stereo) [Example 131, cis-3-Fluoro-N-[2-(3-hydroxy-phenyl)-1-oxo-2-aza-spiro[4.5]dec-7-yl]-benzamide]
73 to 95 | Cc1cc(C(=O)N[C@@H]2CCC[C@@]3(CCN(c4cccc(F)c4)C3=O)C2)ccn1 [Example 95, N-[(5R,7R)-2-(3-Fluoro-phenyl)-1-oxo-2-aza-spiro[4.5]dec-7-yl]-2-methyl-isonicotinamide]
